From the NIST ThermoML archive (doi:10.1016/j.tca.2012.02.002)
± gives the expanded uncertainty stated by the source.

Experiment: molar heat capacity at constant pressure
Conditions: 101.33 kPa, Crystal

O=P([O-])([O-])[O-].[Er+3] [erbium phosphate]
Conditions | molar heat capacity at constant pressure [J/K/mol]
181 K, Vacuum adiabatic calorimetry | 75.35 ± 0.28
184.26 K, Vacuum adiabatic calorimetry | 76.23 ± 0.28
187.53 K, Vacuum adiabatic calorimetry | 77.14 ± 0.28
190 K, Drop calorimetry | 77.87 ± 2.3
190.79 K, Vacuum adiabatic calorimetry | 77.99 ± 0.28
194.05 K, Vacuum adiabatic calorimetry | 78.87 ± 0.28
197.31 K, Vacuum adiabatic calorimetry | 79.82 ± 0.28
200 K, Drop calorimetry | 80.51 ± 2.4
200.56 K, Vacuum adiabatic calorimetry | 80.61 ± 0.28
204.21 K, Vacuum adiabatic calorimetry | 81.51 ± 0.28
208.26 K, Vacuum adiabatic calorimetry | 82.53 ± 0.28
210 K, Drop calorimetry | 83.03 ± 2.5
212.31 K, Vacuum adiabatic calorimetry | 83.53 ± 0.28
216.35 K, Vacuum adiabatic calorimetry | 84.52 ± 0.28
220 K, Drop calorimetry | 85.43 ± 2.6
220.38 K, Vacuum adiabatic calorimetry | 85.53 ± 0.29
228.3 K, Vacuum adiabatic calorimetry | 87.52 ± 0.29
230 K, Drop calorimetry | 87.73 ± 2.6
232.31 K, Vacuum adiabatic calorimetry | 88.39 ± 0.29
236.31 K, Vacuum adiabatic calorimetry | 89.17 ± 0.29
240 K, Drop calorimetry | 89.95 ± 2.7
240.3 K, Vacuum adiabatic calorimetry | 90.08 ± 0.29
244.27 K, Vacuum adiabatic calorimetry | 90.89 ± 0.29
248.24 K, Vacuum adiabatic calorimetry | 91.71 ± 0.29
250 K, Drop calorimetry | 92.08 ± 2.8
252.19 K, Vacuum adiabatic calorimetry | 92.54 ± 0.29
256.13 K, Vacuum adiabatic calorimetry | 93.34 ± 0.29
260 K, Drop calorimetry | 94.13 ± 2.8
260.05 K, Vacuum adiabatic calorimetry | 94.13 ± 0.29
263.96 K, Vacuum adiabatic calorimetry | 94.97 ± 0.3
267.82 K, Vacuum adiabatic calorimetry | 95.68 ± 0.3
270 K, Drop calorimetry | 96.08 ± 2.9
271.7 K, Vacuum adiabatic calorimetry | 96.34 ± 0.3
275.56 K, Vacuum adiabatic calorimetry | 97.1 ± 0.3
279.36 K, Vacuum adiabatic calorimetry | 97.78 ± 0.3
280 K, Drop calorimetry | 97.93 ± 2.9
283.13 K, Vacuum adiabatic calorimetry | 98.4 ± 0.3
286.87 K, Vacuum adiabatic calorimetry | 99.05 ± 0.3
290 K, Drop calorimetry | 99.69 ± 3
290.33 K, Vacuum adiabatic calorimetry | 99.68 ± 0.3
294.03 K, Vacuum adiabatic calorimetry | 100.3 ± 0.3
297.69 K, Vacuum adiabatic calorimetry | 101 ± 0.3
300 K, Drop calorimetry | 101.4 ± 3
301.33 K, Vacuum adiabatic calorimetry | 101.7 ± 0.3
305.3 K, Vacuum adiabatic calorimetry | 102.4 ± 0.3
310 K, Drop calorimetry | 103 ± 3.1
311.36 K, Vacuum adiabatic calorimetry | 103.5 ± 0.3
318.34 K, Vacuum adiabatic calorimetry | 104.6 ± 0.3
320 K, Drop calorimetry | 104.8 ± 3.1
325.26 K, Vacuum adiabatic calorimetry | 105.6 ± 0.3
330 K, Drop calorimetry | 106.5 ± 3.2
332.11 K, Vacuum adiabatic calorimetry | 106.5 ± 0.3
338.88 K, Vacuum adiabatic calorimetry | 107.5 ± 0.3
340 K, Drop calorimetry | 108.2 ± 3.2
345.58 K, Vacuum adiabatic calorimetry | 108.5 ± 0.3
350 K, Drop calorimetry | 109.8 ± 3.3
400 K, Drop calorimetry | 116.9 ± 3.5
450 K, Drop calorimetry | 122.8 ± 3.7
500 K, Drop calorimetry | 127.7 ± 3.8
550 K, Drop calorimetry | 131.8 ± 4
600 K, Drop calorimetry | 135.4 ± 4.1
650 K, Drop calorimetry | 138.4 ± 4.2
700 K, Drop calorimetry | 141 ± 4.2
750 K, Drop calorimetry | 143.3 ± 4.3
800 K, Drop calorimetry | 145.3 ± 4.4
850 K, Drop calorimetry | 147.1 ± 4.4
900 K, Drop calorimetry | 148.8 ± 4.5
950 K, Drop calorimetry | 150.2 ± 4.5
1000 K, Drop calorimetry | 151.6 ± 4.5
1050 K, Drop calorimetry | 152.8 ± 4.6
1100 K, Drop calorimetry | 154 ± 4.6
1150 K, Drop calorimetry | 155.1 ± 4.7
1200 K, Drop calorimetry | 156.1 ± 4.7
1250 K, Drop calorimetry | 157.1 ± 4.7
1300 K, Drop calorimetry | 158.1 ± 4.7
1350 K, Drop calorimetry | 158.9 ± 4.8
1400 K, Drop calorimetry | 159.8 ± 4.8
1450 K, Drop calorimetry | 160.6 ± 4.8
1500 K, Drop calorimetry | 161.4 ± 4.8
1550 K, Drop calorimetry | 162.2 ± 4.9
1600 K, Drop calorimetry | 162.9 ± 4.9
